# In PMC11206245 (Pharmaceuticals, 2024):
# “Also recorded” adds a separate entry of the source. Read-outs that look alike come from different tables or passages of the source.
# Key:
# healthy dogs [1] = assay: Study B: safety and toxicity, side and adverse effects, plasma biochemistry; assay type: in vivo
# Experimental: (§1) Study B involved 9 healthy dogs (8 females and 1 male), including the 4 females from Study A after wash-out and upon confirmation of regular laboratory evaluations. […] Tolerability evaluations were performed via clinical examinations and blood sampling for laboratory evaluation after each treatment. For toxicity assessments, 4, 6, and 8 h after the final administration, the animals were euthanized for tissue collection and histopathological evaluation.
# (§2) Hemograms were performed following blood collection.
# [2] = cited from earlier work
# healthy dogs [3] = assay: Study B: histopathology of tissues after treatment; assay type: in vivo; conditions: nine dogs, three IV doses of 150 mg/m^2
# Experimental: as §1, §2
# [4] = parameters: method as in earlier work; conditions: mice with MCF-7 breast tumors, 40 mg/kg intravenous dose; ref National Institute of Cancer's guide, https://dtp.cancer.gov/timeline/posters/AGG_Geldamycin.pdf; cited from earlier work
# [5] = Study A dose-escalation protocol: 17-AAG pharmacokinetics in plasma (HPLC); assay type: in vivo; conditions: dogs; for AUC / Cmax / half-life: female, dog; for AUC: AUC0–8h; for half-life: read-out: t½ (converted)
# Experimental: (§3) In Studies A and B, an intravenous catheter was placed in the cephalic vein of each animal’s right and left anterior limbs. […] Under both protocols, blood samples were centrifuged at 1500× g at 4 °C for 10 min.
# For the mobile phase, acetonitrile (ACN, J.T.Baker®, Philadelphia, PA, USA) and water with 1% acetic acid (J.T.Baker®)were used. Briefly, aliquots of 200 µL of plasma or 100 µL of subcutaneous interstitial liquid were placed in a 1.5 mL microcentrifuge tube. Subsequently, 600 µL and 300 µL of ACN were added to all plasma and subcutaneous interstitial liquid samples, respectively. The mixture was vortexed for 30 s, followed by centrifugation at 3400× g for 10 min. Next, 500 µL of the plasma supernatant and 250 µL of the subcutaneous interstitial fluid were pipetted into a new vial. The method was validated in accordance with the International Council for Harmonization (ICH) technical requirements for the evaluation of medicinal products. […] No matrix interferences were observed. Two calibrated plasma curves of 17-AAG were validated with different injection volumes. […] Data acquisition and processing were performed using LabSolutions software (Version 5.3).
# (§4) Cmax, half-life (t ½), distribution volume, and clearance were also determined. Data were analyzed in Excel and WinNonlin using a mono-compartmental model.
# [6] = Study B multiple administrations of 150 mg/m^2: 17-AAG pharmacokinetics in plasma (HPLC); assay type: in vivo, dogs; conditions: dog, iv; for AUC(0-t) / Cmax / half-life: both sexes, plasma, dogs, mean ± SD; for AUC(0-t): 150 mg/m2, AUC 0–8 h, Study B; for Cmax / half-life: 150 mg/m2, Study B; for half-life: read-out: t ½ (converted); for Clearance / DV (distribution volume): in vivo
# Experimental: as §1, §3
# For the mobile phase, acetonitrile (ACN, J.T.Baker®, Philadelphia, PA, USA) and water with 1% acetic acid (J.T.Baker®)were used. Briefly, aliquots of 200 µL of plasma or 100 µL of subcutaneous interstitial liquid were placed in a 1.5 mL microcentrifuge tube. Subsequently, 600 µL and 300 µL of ACN were added to all plasma and subcutaneous interstitial liquid samples, respectively. The mixture was vortexed for 30 s, followed by centrifugation at 3400× g for 10 min. Next, 500 µL of the plasma supernatant and 250 µL of the subcutaneous interstitial fluid were pipetted into a new vial. […] Data acquisition and processing were performed using LabSolutions software (Version 5.3).
# as §4
# [7] = parameters: method as in PMID 22124669, PMID 20618337; conditions: humans; cited from earlier work
# [8] = Study B, third day, out of nine dogs
# [9] = Study A, plasma, single IV dose 50 mg/m^2, mean ± SD
# [10] = Study A, plasma, single IV dose 100 mg/m^2, mean ± SD
# [11] = Study A, plasma, single IV dose 150 mg/m^2, mean ± SD
# [12] = Study A, plasma, single IV dose 200 mg/m^2, mean ± SD
# [13] = Study A, plasma, single IV dose 250 mg/m^2, mean ± SD
# [14] = 50 mg/m2, Study A, plasma, single IV dose 50 mg/m^2, mean ± SD
# [15] = 100 mg/m2, Study A, plasma, single IV dose 100 mg/m^2, mean ± SD
# [16] = 150 mg/m2, Study A, plasma, single IV dose 150 mg/m^2, mean ± SD
# [17] = 200 mg/m2, Study A, plasma, single IV dose 200 mg/m^2, mean ± SD
# [18] = 250 mg/m2, Study A, plasma, single IV dose 250 mg/m^2, mean ± SD
# [19] = 1st of three IV administrations of 150 mg/m^2 at 48 h intervals
# [20] = 2nd of three IV administrations of 150 mg/m^2 at 48 h intervals
# [21] = 3rd of three IV administrations of 150 mg/m^2 at 48 h intervals
structure (smiles),measurement,setting,value
"C=CCNC1=C2C[C@@H](C)C[C@H](OC)[C@H](O)[C@@H](C)/C=C(\C)[C@H](OC(N)=O)[C@@H](OC)/C=C\C=C(/C)C(=O)NC(=CC1=O)C2=O [17-AAG, 17-(allylamino)-17-demethoxygeldanamycin]",Animals with elevated transaminase levels persisting,"healthy dogs [1]; Study B, by the fourth day",only one animal
same,Animals with bloody diarrhea,"healthy dogs [1]; Study B, fourth day",one animal
same,Animals with pale feces,"healthy dogs [1]; Study B, fourth day",seven out of nine
same,Dogs with elevated levels of ALT and AST,"healthy dogs [1]; Study B, multiple doses of 150 mg/m^2, three out of nine",33%
same,Animals with pasty feces,"healthy dogs [1]; Study B, second day after administering the second dose",two out of nine
same,Animals with bloody diarrhea,healthy dogs [1]; [8],one
same,Animals with diarrhea with liquid feces,healthy dogs [1]; [8],three
same,Animals with pasty feces,healthy dogs [1]; [8],two
same,"Dogs presenting elevated levels of ALT, AST and GGT","healthy dogs [1]; Study B, three IV doses of 150 mg/m^2",3/9
same,Animals with skin reaction with temporarily erupted hairs,"healthy dogs [1]; dog, in vivo",only one animal
same,Animals presenting adverse reactions: ALT,"healthy dogs [1]; dog, in vivo, iv",3 (33%) n (%)
same,Animals presenting adverse reactions: AST,"healthy dogs [1]; dog, in vivo, iv",3 (33%) n (%)
same,Animals presenting adverse reactions: bloody diarrhea,"healthy dogs [1]; dog, in vivo, iv",1 (11%) n (%)
same,Animals presenting adverse reactions: diarrhea (liquid feces),"healthy dogs [1]; dog, in vivo, iv",3 (33%) n (%)
same,Animals presenting adverse reactions: erythema,"healthy dogs [1]; dog, in vivo, iv",0 n (%)
same,Animals presenting adverse reactions: hyperthermia,"healthy dogs [1]; dog, in vivo, iv",0 n (%)
same,Animals presenting adverse reactions: nausea,"healthy dogs [1]; dog, in vivo, iv",0 n (%)
same,Animals presenting adverse reactions: pasty feces,"healthy dogs [1]; dog, in vivo, iv",9 (100%) n (%)
same,Animals presenting adverse reactions: pruritus,"healthy dogs [1]; dog, in vivo, iv",0 n (%)
same,Animals presenting adverse reactions: vomit,"healthy dogs [1]; dog, in vivo, iv",0 n (%)
same,Solubility in Dimethyl Sulfoxide (DMSO),[2]; according to PubChem,100 mM
same,Solubility in ethanol,[2]; according to PubChem,10 mM
same,Aqueous solubility,[2]; aqueous,approximately 0.01 mg/mL
same,Histopathological alterations in the lung and heart,healthy dogs [3],no histopathological alterations
same,maximum plasma half-life,[4],264 min
same,"Clearance from plasma, on average","[5]; Study A, average over doses 50–250 mg/m^2",0.026 ± 0.010 L/h/m^2
same,Dose-proportionality of Cmax and AUC,"[5]; Study A, plasma, IV doses 50–250 mg/m^2",linear correlation between doses ranging from 50 to 200 mg/m^2; also recorded: dose-proportionate between the 50 and 200 mg/m^2 doses
same,Clearance,[5]; [9],0.04 ± 0.02 L/m^2/h
same,DV (distribution volume),[5]; [9],0.03 ± 0.02 L/m^2
same,Clearance,[5]; [10],0.03 ± 0.01 L/m^2/h
same,DV (distribution volume),[5]; [10],0.02 ± 0.01 L/m^2
same,Clearance,[5]; [11],0.02 ± 0.00 L/m^2/h
same,DV (distribution volume),[5]; [11],0.02 ± 0.00 L/m^2
same,Clearance,[5]; [12],0.02 ± 0.00 L/m^2/h
same,DV (distribution volume),[5]; [12],0.02 ± 0.00 L/m^2
same,Clearance,[5]; [13],0.03 ± 0.01 L/m^2/h
same,DV (distribution volume),[5]; [13],0.02 ± 0.00 L/m^2
same,"maximum plasma concentration (Cmax), lower end of range","[5]; abstract, after single IV doses 50–250 mg/m^2",1405 ± 686 ng/mL
same,AUC,[5]; [14],1480 ± 695 ng·h/mL
same,Cmax,"[5]; 50 mg/m2, Study A, plasma, single IV dose 50 mg/m^2, mean ± SD, read-out: Cmax",1410 ± 687 ng/mL
same,half-life,[5]; [14],32.4 ± 1.8 min
same,AUC,[5]; [15],4380 ± 1630 ng·h/mL
same,Cmax,"[5]; 100 mg/m2, Study A, plasma, single IV dose 100 mg/m^2, mean ± SD, read-out: Cmax",3760 ± 1420 ng/mL
same,half-life,[5]; [15],36.6 ± 4.8 min
same,AUC,[5]; [16],7930 ± 1550 ng·h/mL
same,Cmax,"[5]; 150 mg/m2, Study A, plasma, single IV dose 150 mg/m^2, mean ± SD, read-out: Cmax",6940 ± 1340 ng/mL
same,half-life,[5]; [16],35.4 ± 2.4 min
same,AUC,[5]; [17],11900 ng·h/mL
same,Cmax,"[5]; 200 mg/m2, Study A, plasma, single IV dose 200 mg/m^2, mean ± SD, read-out: Cmax",9440 ± 991 ng/mL
same,half-life,[5]; [17],40.2 ± 3 min
same,AUC,[5]; [18],9630 ± 2670 ng·h/mL
same,Cmax,"[5]; 250 mg/m2, Study A, plasma, single IV dose 250 mg/m^2, mean ± SD, read-out: Cmax",8610 ± 1060 ng/mL
same,half-life,[5]; [18],34.2 ± 12.6 min
same,Cmax,"[5]; plasma, abstract, after single IV doses 50–250 mg/m^2, read-out: maximum plasma concentration (Cmax), upper end of range",9440 ± 991 ng/mL
same,AUC(0-t),[6]; [19],6350 ± 432 ng·h/mL
same,AUC(0-t),[6]; [20],7050 ± 382 ng·h/mL
same,AUC(0-t),[6]; [21],6850 ± 69 ng·h/mL
same,Cmax,[6]; [19],6310 ± 2200 ng/mL
same,Cmax,[6]; [20],5910 ± 1130 ng/mL
same,Cmax,[6]; [21],5250 ± 2780 ng/mL
same,half-life,[6]; [19],41.4 ± 13.2 min
same,half-life,[6]; [20],41.4 ± 14.4 min
same,half-life,[6]; [21],48.6 ± 21 min
same,Clearance,[6]; 1st administration,0.023 ± 0.002 L/m^2/h
same,DV (distribution volume),[6]; 1st administration,0.029 ± 0.003 L/m^2
same,Clearance,[6]; 2nd administration,0.021 ± 0.001 L/m^2/h
same,DV (distribution volume),[6]; 2nd administration,0.030 ± 0.002 L/m^2
same,Clearance,[6]; 3rd administration,0.022 ± 0.002 L/m^2/h
same,DV (distribution volume),[6]; 3rd administration,0.033 ± 0.003 L/m^2
same,half-life,[7],180 to 360 min
